Assays:
[1] = tested on: juvenile sunshine bass Morone chrysops×M. saxatilis; test: Gastric residuum stratification trial with pelleted diets with varied levels of lecithin inclusion; assay type: in vivo; conditions: 2% BWD meal, 4.5 h post-prandial
From the text: Residuum appearance: Nine pellet trained sub-adult spotted bass (mean weight=150 grams) were maintained in isolation in 37.8 L glass aquariums for seven days. During days 1-5, the bass were hand-fed to satiation once daily with either a semi-purified pellet diet (See Table 2), live paper shell crayfish (Orconectes immunis), or live fathead minnows (Pimephales promelas). Three bass were given each dietary treatment. Crayfish and minnows were maintained on the same pelleted diet as the bass and fed to apparent satiation two times daily. On Day 6, food was withheld to allow complete evacuation of gastric contents. On Day 7, the bass were fed that same food as during Days 1-5, at a rate of approximately 2% of their body weight (dry weight of feed/wet weight of bass). Post-prandially (4.5 hours) the bass were dispatched with blunt trauma to the head before immersion in liquid nitrogen until frozen solid (approx. 2 mins.). The bass were stored frozen until the residuum was removed by dissection. The position of the pyloric sphincter was noted relative to the observed strata. Representative residua were photographed. Residuum strata were separated using a razor blade for determination of proximate composition.
Juvenile sunshine bass Morone chrysops×M. saxatilis (n=15) were stocked individually into 110 L tanks and acclimated for a period of five days. […]

[2] = tested on: hybrid striped bass (Morone chrysops X M. saxatilis); test: Growth and feed efficiency trial of practical diets supplemented with a non-nutritive emulsifier; assay type: in vivo; conditions: for FCR (feed conversion ratio) / Weight Gain (%): 28 days, initial weight 15 g; for Weight Gain (%): fed daily to satiation
From the text: The present example provides details of experiments conducted to evaluate and quantify the effects of a non-nutritive emulsifier upon the growth and feed efficiency of phase-I hybrid striped bass (Morone chrysops×M. saxatilis). Tween-80® (provided as a liquid supplement) was incorporated into practical diets formulated to meet, or exceed, the known nutrient requirements of hybrid striped bass. Diets were formulated at Southern Illinois University using MIXIT 3 WIN (Agricultural Software Consultants, Inc., San Diego) and manufactured as cold pressed pellets.
Fish were stocked at a density of 15 fish per tank. Four practical diets were formulated to meet or exceed the known dietary requirements of juvenile hybrid striped bass. Each diet was supplemented with one of four concentrations of emulsifier providing dietary treatments of 0, 0.5, 1.0, and 2.0% Tween-80®, respectively. Fish were fed daily to satiation and feed consumption was monitored weekly. After 4 weeks, all fish in each tank were weighed to determine growth. Feed consumption was used to calculate feed conversion ratio (g feed:g weight gain).

[3] = juvenile hybrid striped bass, practical diets

| Molecule | stratification of the gastric residuum ([1]; lecithin inclusion rates of 0.25, 0.50, 1.00 and 2.00% of pellet weight) | amount of post-prandial water intake into the gastric residuum ([1]; lecithin inclusion rates of 0.50, 1.00 and 2.00%) | FCR (feed conversion ratio) ([2]; 0.5% Tween-80 in diet) | Weight Gain (%) ([2]; 0.5% Tween-80 in diet) | FCR (feed conversion ratio) ([2]; 1.0% Tween-80 in diet) | Weight Gain (%) ([2]; 1.0% Tween-80 in diet) | FCR (feed conversion ratio) ([2]; 2.0% Tween-80 in diet) | Weight Gain (%) ([2]; 2.0% Tween-80 in diet) | feed conversion compared to fish fed a control diet void of Tween-80 [2, 3] | weight gain compared to fish fed a control diet void of Tween-80 [2, 3] |
| --- | --- | --- | --- | --- | --- | --- | --- | --- | --- | --- |
| lecithin (phosphatidyl choline) | reduce stratification of the gastric residuum | reduce the amount of post-prandial water intake | – | – | – | – | – | – | – | – |
| CCCCCCCC/C=C\CCCCCCCC(=O)OCCOCC(OCCO)C1OCC(OCCO)C1OCCO (stereo not shown) [Tween-80] | – | – | 1.21 g feed:g gain | 118% | 1.16 g feed:g gain | 140% | 1.23 g feed:g gain | 125% | improved | improved |
